Results on 15 compounds are retold here after ChEMBL document CHEMBL4627302, “Design, synthesis and anticancer activities of novel dual poly(ADP-ribose) polymerase-1/histone deacetylase-1 inhibitors” (Bioorg Med Chem Lett, 2020).

Activity calls are given as the source filed them. The rule behind the calls is not given here.

One test concerns the target Histone deacetylase 1 (Homo sapiens, UniProt Q13547). In words: Inhibition of HDAC1 (unknown origin).
The next test concerns MDA-MB-231. In words: Antiproliferative activity against human MDA-MB-231 cells assessed as cell growth inhibition by MTT assay. It counts as functional. A general note: Tetrazolium dyes change colour on reduction, which living cells bring about.
In the next test the test system is MCF7. In words: Antiproliferative activity against human MCF7 cells assessed as cell growth inhibition by MTT assay. It counts as functional.
Another test deals with K562. Put plainly: Antiproliferative activity against human K562 cells assessed as cell growth inhibition by MTT assay. It counts as functional.
The target of test [1] is T1, Poly [ADP-ribose] polymerase 1 (Homo sapiens, UniProt P09874). In words: Inhibition of PARP1 (unknown origin) at 20 nM relative to control.
T1 sequence (P09874 whole entry): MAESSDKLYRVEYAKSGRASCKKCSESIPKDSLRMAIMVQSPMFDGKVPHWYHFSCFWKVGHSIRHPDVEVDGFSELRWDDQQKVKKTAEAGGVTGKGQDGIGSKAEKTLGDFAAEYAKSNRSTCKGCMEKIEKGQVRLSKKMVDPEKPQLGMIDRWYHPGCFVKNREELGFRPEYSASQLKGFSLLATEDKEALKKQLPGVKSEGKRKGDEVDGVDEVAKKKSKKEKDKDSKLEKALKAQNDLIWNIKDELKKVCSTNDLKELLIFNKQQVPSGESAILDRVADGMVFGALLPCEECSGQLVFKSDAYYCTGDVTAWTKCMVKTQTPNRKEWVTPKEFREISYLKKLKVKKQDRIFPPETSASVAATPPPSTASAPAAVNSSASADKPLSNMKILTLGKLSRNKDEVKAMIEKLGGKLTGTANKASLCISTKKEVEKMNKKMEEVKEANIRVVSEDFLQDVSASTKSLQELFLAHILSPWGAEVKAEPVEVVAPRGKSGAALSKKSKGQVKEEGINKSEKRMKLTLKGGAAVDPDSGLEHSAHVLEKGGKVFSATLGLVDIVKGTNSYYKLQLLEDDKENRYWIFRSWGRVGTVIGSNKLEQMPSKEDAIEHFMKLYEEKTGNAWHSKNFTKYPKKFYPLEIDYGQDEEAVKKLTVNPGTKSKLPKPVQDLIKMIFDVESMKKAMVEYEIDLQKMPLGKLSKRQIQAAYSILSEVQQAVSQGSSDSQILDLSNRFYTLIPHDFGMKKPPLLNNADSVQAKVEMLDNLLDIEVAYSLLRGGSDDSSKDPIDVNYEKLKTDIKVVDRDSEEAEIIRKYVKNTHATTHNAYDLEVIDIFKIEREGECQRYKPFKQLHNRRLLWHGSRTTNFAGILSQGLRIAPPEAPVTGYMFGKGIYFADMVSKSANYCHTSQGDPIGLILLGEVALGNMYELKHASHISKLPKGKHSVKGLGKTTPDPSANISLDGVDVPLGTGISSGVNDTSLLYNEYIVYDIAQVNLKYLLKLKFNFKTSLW
In test [2] the target is T1, Poly [ADP-ribose] polymerase 1. In words: Inhibition of PARP1 (unknown origin).
For test [3] the target is unchanged. In words: Potency index, ratio of olaparib IC50 to test compound IC50 for inhibition of PARP1 (unknown origin).

Histone deacetylase 1, sequence (Q13547 whole entry): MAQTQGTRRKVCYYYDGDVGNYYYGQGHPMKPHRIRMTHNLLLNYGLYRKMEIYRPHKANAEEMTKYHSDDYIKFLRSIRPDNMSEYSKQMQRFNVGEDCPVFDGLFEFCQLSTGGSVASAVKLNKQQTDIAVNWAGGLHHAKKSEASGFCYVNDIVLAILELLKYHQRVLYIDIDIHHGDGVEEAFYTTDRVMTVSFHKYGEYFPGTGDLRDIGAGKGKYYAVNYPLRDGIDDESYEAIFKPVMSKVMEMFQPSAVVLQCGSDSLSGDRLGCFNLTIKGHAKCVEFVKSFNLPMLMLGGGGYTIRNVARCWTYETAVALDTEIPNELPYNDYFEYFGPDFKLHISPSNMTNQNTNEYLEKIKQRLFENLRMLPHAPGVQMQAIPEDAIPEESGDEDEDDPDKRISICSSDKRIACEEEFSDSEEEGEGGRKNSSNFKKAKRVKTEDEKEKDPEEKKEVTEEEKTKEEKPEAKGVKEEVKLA

By IC50 is commonly meant the midpoint of a concentration-inhibition curve. As usually defined, the GI50 is the concentration at which growth is held to half of that of the control. A word on the inhibition: it is the change of the read-out against control, counted positive when it falls. The low end stands for a response near the control, the high end for a response far below the control. `Nc1cc(F)ccc1NC(=O)[C@H]1CC[C@H](CNC(=O)c2cc(Cc3n[nH]c(=O)c4ccccc34)ccc2F)CC1`: at Histone deacetylase 1 (read-out: IC50), the IC50 was 0.89 µM. The GI50 in the test with MDA-MB-231 was found to be 49.2 µM; in the test on K562 it was 6.61 µM. In the test with MCF7, the GI50 entry was “inactive”. Moreover, the inhibition in test [1] was 49.7%.
With `O=C(c1cc(Cc2n[nH]c(=O)c3ccccc23)ccc1F)N1CCN(C(=O)C2CC2)CC1` [OLAPARIB], on Histone deacetylase 1, the IC50 result was “Not Active”. Also, the GI50 in the test on MDA-MB-231 was found to be 4.23 µM; with MCF7, 13.2 µM. Further, in the test on K562, the GI50 result was “inactive”.
For `Nc1cc(F)ccc1NC(=O)C1CCN(C(=O)c2cc(Cc3n[nH]c(=O)c4ccccc34)ccc2F)CC1`, the IC50 at Histone deacetylase 1 (read-out: IC50) was found to be 0.94 µM; in test [2] (read-out: IC50), 0.00258 µM. Moreover, the GI50 in the test with MDA-MB-231 came to 4.49 µM. Moreover, the GI50 result in the test on MCF7 and with K562 was “inactive” in each case.
In the case of `Nc1ccccc1NC(=O)CCCCCNC(=O)c1cc(Cc2n[nH]c(=O)c3ccccc23)ccc1F`, the IC50 was found to be 0.34 µM at Histone deacetylase 1 (read-out: IC50) and 0.00423 µM in test [2] (read-out: IC50). Besides, the results for the GI50 with MDA-MB-231 and with K562 were 4.35 µM and 5.62 µM, respectively. The GI50 result in the test on MCF7 was “inactive”.
Regarding `Nc1ccc(F)cc1NC(=O)CCCCCNC(=O)c1cc(Cc2n[nH]c(=O)c3ccccc23)ccc1F`, the half-maximal inhibitory concentration (IC50) on Histone deacetylase 1 (read-out: IC50) was found to be 0.52 µM. Besides, the GI50 in the test with MDA-MB-231 was 13.9 µM; in the test on K562, 8.13 µM. In addition, the GI50 entry in the test with MCF7 is “inactive”. For the same compound, the inhibition in test [1] came to 65.9%.
With `Nc1ccc(F)cc1NC(=O)C1CCN(C(=O)c2cc(Cc3n[nH]c(=O)c4ccccc34)ccc2F)CC1`, the figures for the IC50 (on Histone deacetylase 1 (read-out: IC50); in test [2] (read-out: IC50)) were 0.95 µM and 0.00181 µM, respectively. Also, in the test on MDA-MB-231, the GI50 turned out to be 1.03 µM. For the same compound, the GI50 entry in the test with MCF7 and in the test with K562 was “inactive” each time.
Take `Nc1ccc(F)cc1NC(=O)c1ccc(CNC(=O)/C=C/c2cccnc2)cc1`: the GI50 came out at 2.88 µM in the test with MDA-MB-231, 1.43 µM in the test on MCF7 and 0.45 µM with K562. The IC50 result in test [2] is given as “Not Active”.
As for `Nc1cc(F)ccc1NC(=O)CCCCNC(=O)c1cc(Cc2n[nH]c(=O)c3ccccc23)ccc1F`, at Histone deacetylase 1 (read-out: IC50), the 50% inhibitory concentration (IC50) is 1 µM. For the same compound, in the test on MDA-MB-231, the GI50 turned out to be 25.4 µM. Moreover, the GI50 result in the test with MCF7 was “inactive”. The inhibition in test [1] worked out at 64.7%.
Regarding `Nc1cc(F)ccc1NC(=O)CCCCCNC(=O)c1cc(Cc2n[nH]c(=O)c3ccccc23)ccc1F`, the 50% inhibitory concentration (IC50) at Histone deacetylase 1 (read-out: IC50) is 0.81 µM. For the same compound, the GI50 in the test on MDA-MB-231 was 40.5 µM; with K562, 14.7 µM. The GI50 result with MCF7 is “inactive”. The compound further displayed an inhibition in test [1] of 46.2%.
For `Nc1cc(F)ccc1NC(=O)c1ccc(CNC(=O)c2cc(Cc3n[nH]c(=O)c4ccccc34)ccc2F)cc1`, at Histone deacetylase 1 (read-out: IC50), the IC50 worked out at 0.34 µM. The GI50 was determined as 78.7 µM in the test with MDA-MB-231, 11.5 µM in the test with MCF7 and 2.21 µM in the test with K562. Also, the inhibition in test [1] is 22.1%.
On to `Nc1ccccc1NC(=O)CCCCNC(=O)c1cc(Cc2n[nH]c(=O)c3ccccc23)ccc1F`, for which the concentration for half-maximal inhibition (IC50) at Histone deacetylase 1 (read-out: IC50) stood at 0.74 µM. Moreover, the GI50 stood at 61.6 µM in the test with MDA-MB-231 and 62.4 µM with K562. Besides, the GI50 result with MCF7 was “inactive”. Besides, the inhibition in test [1] was 39.4%.
Regarding `Nc1ccc(F)cc1NC(=O)CCCCNC(=O)c1cc(Cc2n[nH]c(=O)c3ccccc23)ccc1F`, on Histone deacetylase 1 (read-out: IC50), the IC50 turned out to be 0.91 µM. Further, the GI50 with MDA-MB-231 is 31.3 µM. For the same compound, the GI50 result in the test on MCF7 and in the test with K562 was “inactive” in each case. Besides, the inhibition in test [1] stood at 42.4%.
Turning to `Nc1ccccc1NC(=O)c1ccc(CNC(=O)c2cc(Cc3n[nH]c(=O)c4ccccc34)ccc2F)cc1`, the IC50 on Histone deacetylase 1 (read-out: IC50) came out at 0.14 µM. The GI50 came to 59.3 µM in the test on MDA-MB-231, 1.91 µM with MCF7 and 0.408 µM in the test with K562. In test [1], this compound registered an inhibition of 37.4%.
For the compound `Nc1ccccc1NC(=O)C1CCN(C(=O)c2cc(Cc3n[nH]c(=O)c4ccccc34)ccc2F)CC1`, the IC50 at Histone deacetylase 1 (read-out: IC50) was determined as 0.82 µM; in test [2] (read-out: IC50), 0.00194 µM. Besides, the Ratio IC50 in test [3] was 2. Besides, the GI50 in the test on MDA-MB-231 turned out to be 2.31 µM. For the same compound, the GI50 result with MCF7 and in the test on K562 was “inactive” each time.
Regarding `Nc1ccccc1NC(=O)[C@H]1CC[C@H](CNC(=O)c2cc(Cc3n[nH]c(=O)c4ccccc34)ccc2F)CC1`, the IC50 on Histone deacetylase 1 (read-out: IC50) was found to be 0.34 µM. The GI50 in the test on MDA-MB-231 was determined as 50.5 µM; in the test with MCF7 it was 11.1 µM; with K562, 2.92 µM. This compound also had an inhibition in test [1] of 41.3%.
